Test results from patent publication US9593140B2, “Antibacterial tylosin derivatives and methods for their preparation” (Bayer Intellectual Property GmbH, priority 2011, dated 2017).

What was measured:
Format in all cases: cell-based
[1] = system: Mannhemia hemolytica KB345; assay: Paper disc assay, M. hemolytica KB345 (Tilmicosin-sensitivity strain); settings: for zone of inhibition at 1 mg/disc / zone of inhibition at 3 mg/disc / zone of inhibition at 10 mg/disc / zone of inhibition at 30 mg/disc / zone of inhibition at 100 mg/disc: 24 h; for zone of inhibition at 1 mg/disc: 1 mg/6 mm disk
Method: (§1) (1) Antibacterial Activities Against Mannheimia and Pasteurella were Determined by the Following Steps:
(§2) 1) M. hemolytica KB345 (Tilmicosin-sensitivity strain) and M. hemolytica KB346 (Tilmicosin-low sensitivity strain) were provided. KB 345 strain stored at −80° C. was seeded to BHIB agar medium (10 mL) by using Microbank beads (Pro-Lab) and platinum nail. After statically incubating the KB 345 strain for 24 hours at 37° C., it was seeded to maintaining slant BHIB agar medium (7 mL) by using platinum loop, further statically incubated for 24 hours at 37° C. to obtain slant. One platinum loop of KB 345 strain stored at the slant was inoculated into a large test tube charged with BHIB liquid medium (10 mL) and then incubated for 24 hours at 37° C. with shaking.
(§3) 2) A paper disc (ADVANTEC, Φ:6 mm) was impregnated with a solution of test compound and dried under reduced pressure.
(§4) 3) To a melted BHIB agar medium was inoculated 1% of the broth obtained from step 1) above to prepare a test plate. After the medium set, the paper disc prepared in step 2) above was put on the plate and it was incubated at 37° C.
(§5) 4) After one day, the inhibition zone diameter and clarity (A to E) were determined.

[2] = system: Mannhemia hemolytica KB346; assay: Paper disc assay, M. hemolytica KB346 (Tilmicosin-low sensitivity strain); settings: Table 3
Method: as §1, §2, §3, §4, §5
For KB346 strain, the same procedures were repeated.

[3] = system: Bacillus subtilis ATCC6633; assay: Paper disc assay, Bacillus subtilis (S)
Method: (§6) (2) Antibacterial activities against other bacteria were determined with Micrococcus luteus ATCC9341 (1), Bacillus subtilis […] (s), Escherichia coli NIHJ (c), Xanthomonas campestris KB88 (X), Mucor racemosus IFO 4581 (Mu) and Candida albicans ATCC 64548 (Ca).
(§7) Bacillus subtilis ATCC6633 was incubated in Davis synthetic medium and then the seed broth was combined with the medium in the ratio of 1:99 to obtain a test plate. Micrococcus luteus ATCC9341, Escherichia coli NIHJ and Xanthomonas campestris KB88 were respectively incubated in Nutrient agar medium and inoculated at 0.2%, 0.5% and 1.0%. Mucor racemosus IFO 4581 and Candida albicans ATCC 64548 were respectively incubated in GY agar medium and then inoculated at 0.3% and 0.2%.
(§8) A paper disc (ADVANTEC, Φ:6 mm) was impregnated with a solution of test compound and dried under reduced pressure. The paper disc was put on the test plate and it was incubated for 24 hours at 37° C. After incubation, the inhibition zone diameter and clarity (A to E) were determined.

[4] = system: Micrococcus luteus ATCC9341; assay: Paper disc assay, Micrococcus luteus (l)
Method: as §6, §7, §8

[5] = system: Xanthomonas campestris KB88; assay: Paper disc assay, Xanthomonas campestris (X)
Method: as §6, §7, §8

Row | Compound | zone of inhibition at 3 mg/disc ([1]; Table 2, 3 mg/6 mm disk) | zone of inhibition at 10 mg/disc ([1]; Table 2, 10 mg/6 mm disk) | zone of inhibition at 30 mg/disc ([1]; Table 2, 30 mg/6 mm disk) | zone of inhibition at 100 mg/disc ([1]; Table 2, 100 mg/6 mm disk) | Inhibition zone (mm) ([3]; 0.1 mg/6 mm disc) | Inhibition zone (mm) ([3]; 1 mg/6 mm disc) | Inhibition zone (mm) ([3]; 10 mg/6 mm disc) | Inhibition zone (mm) ([4]; 0.1 mg/6 mm disc) | Inhibition zone (mm) ([4]; 1 mg/6 mm disc) | Inhibition zone (mm) ([4]; 10 mg/6 mm disc) | Inhibition zone (mm) ([5]; 0.1 mg/6 mm disc) | Inhibition zone (mm) ([5]; 1 mg/6 mm disc) | Inhibition zone (mm) ([5]; 10 mg/6 mm disc) | other results
1 | CC[C@H]1OC(=O)C[C@@H](O)[C@H](C)[C@@H](O[C@@H]2O[C@H](C)[C@@H](O)[C@H](N(C)C)[C@H]2O)[C@@H](CC=O)C[C@@H](C)C(=O)/C=C/C(C)=C/[C@@H]1CO[C@@H]1O[C@H](C)[C@@H](O)[C@@H](OC)[C@H]1OC [YT6, Desmycosin] | – | – | – | – | – | – | – | – | – | – | – | – | – | Inhibition zone (mm) ([1]; Table 2, 30 mg/6 mm disk): 10.5 mm; Inhibition zone (mm) ([2]; 3 mg/6 mm disk): 8.5 mm; Inhibition zone (mm) ([2]; 10 mg/6 mm disk): 13.5 mm; Inhibition zone (mm) ([2]; 30 mg/6 mm disk): 17.5 mm; Inhibition zone (mm) ([2]; 100 mg/6 mm disk): 21.0 mm
2 | CC[C@H]1OC(=O)C[C@@H](O)[C@H](C)[C@@H](O[C@@H]2O[C@H](C)[C@@H](O)[C@H](N(C)C)[C@H]2O)[C@@H](CCCl)C[C@@H](C)C(=O)/C=C/C(C)=C/[C@@H]1CO[C@@H]1O[C@H](C)[C@@H](O)[C@@H](OC)[C@H]1OC [YT8, 20-chloro-20-deoxodesmycosin] | – | – | – | – | – | – | – | – | – | – | – | – | – | Inhibition zone (mm) ([1]; Table 2, 10 mg/6 mm disk): 12.5 mm; Inhibition zone (mm) ([1]; Table 2, 30 mg/6 mm disk): 18.0 mm; Inhibition zone (mm) ([1]; Table 2, 100 mg/6 mm disk): 20.0 mm; Inhibition zone (mm) ([2]; 30 mg/6 mm disk): 11.0 mm; Inhibition zone (mm) ([2]; 100 mg/6 mm disk): 14.5 mm
3 | CCC1OC(=O)CC(O)C(C)C(OC2OC(C)C(O)C(N(C)C)C2O)C(CCN=[N+]=[N-])CC(C)C(=O)C=CC(C)=CC1COC1OC(C)C(O)C(OC)C1OC (centres unmarked) [YT11, 20-azido-20-deoxodesmycosin] | – | – | – | – | – | – | – | – | – | – | – | – | – | Inhibition zone (mm) ([1]; Table 2, 3 mg/6 mm disk): 10.0 mm; Inhibition zone (mm) ([1]; Table 2, 10 mg/6 mm disk): 13.0 mm; Inhibition zone (mm) ([1]; Table 2, 30 mg/6 mm disk): 16.0 mm; Inhibition zone (mm) ([1]; Table 2, 100 mg/6 mm disk): 18.0 mm; Inhibition zone (mm) ([2]; 100 mg/6 mm disk): 11.0 mm
4 | CC[C@H]1OC(=O)C[C@@H](O)[C@H](C)[C@@H](O[C@@H]2OC(C)[C@@H](O)C(N(C)C)C2O)[C@@H](CCn2cc(-c3ccccn3)nn2)C[C@@H](C)C(=O)/C=C/C(C)=C/[C@@H]1CO[C@@H]1OC(C)[C@@H](O)C(OC)C1OC (some centres unmarked) [YT12, 20-(4-(pyridine-2-yl)-1H-1,2,3-triazol-1-yl)-20-deoxodesmycosin] | 13 mm | 17 mm | 19 mm | 22 mm | 7 mm | 12.5 mm | 14 mm | 12 mm | 18.5 mm | 25 mm | 7 mm | 12.5 mm | 27 mm | zone of inhibition at 1 mg/disc ([1]; Table 2): 9 mm
5 | CC[C@H]1OC(=O)C[C@@H](O)[C@H](C)[C@@H](O[C@@H]2OC(C)[C@@H](O)C(N(C)C)C2O)[C@@H](CCn2cc(-c3ccccc3)nn2)C[C@@H](C)C(=O)/C=C/C(C)=C/[C@@H]1CO[C@@H]1OC(C)[C@@H](O)C(OC)C1OC (some centres unmarked) [YT13, 20-(4-phenyl-1H-1,2,3-triazol-1-yl)-20-deoxodesmycosin] | 15 mm | 16 mm | 18 mm | 21 mm | 9.5 mm | 12 mm | 15.5 mm | 15 mm | 21.5 mm | 27.5 mm | 8 mm | 17 mm | 23.5 mm | zone of inhibition at 1 mg/disc ([1]; Table 2): 11 mm
6 | CC[C@H]1OC(=O)C[C@@H](O)[C@H](C)[C@@H](O[C@@H]2OC(C)[C@@H](O)C(N(C)C)C2O)[C@@H](CCn2cc(CCCCCl)nn2)C[C@@H](C)C(=O)/C=C/C(C)=C/[C@@H]1CO[C@@H]1OC(C)[C@@H](O)C(OC)C1OC (some centres unmarked) [YT19, 20-(4-(4-chlorobutyl)-1H-1,2,3-triazol-1-yl)-20-deoxodesmycosin] | 14 mm | 16 mm | 18 mm | 21 mm | 7 mm | 10.5 mm | 15 mm | 13 mm | 19 mm | 26 mm | 7 mm | 14.5 mm | 23 mm | –
7 | CC[C@H]1OC(=O)C[C@@H](O)[C@H](C)[C@@H](O[C@@H]2OC(C)[C@@H](O)C(N(C)C)C2O)[C@@H](CCn2cc(-c3ccc(N(C)C)cc3)nn2)C[C@@H](C)C(=O)/C=C/C(C)=C/[C@@H]1CO[C@@H]1OC(C)[C@@H](O)C(OC)C1OC (some centres unmarked) [YT29, 20-(4-(4-dimethylaminophenyl)-1H-1,2,3-triazol-1-yl)-20-deoxodesmycosin] | 13.5 mm | 16 mm | 17.5 mm | 20 mm | 7 mm | 10 mm | 15 mm | 11 mm | 19.5 mm | 25.5 mm | 7 mm | 15 mm | 24 mm | –
8 | CC[C@H]1OC(=O)C[C@@H](O)[C@H](C)[C@@H](O[C@@H]2OC(C)[C@@H](O)C(N(C)C)C2O)[C@@H](CCn2cc(-c3cnc4ccccc4c3)nn2)C[C@@H](C)C(=O)/C=C/C(C)=C/[C@@H]1CO[C@@H]1OC(C)[C@@H](O)C(OC)C1OC (some centres unmarked) [YT35, 20-(4-(3-quinoline)-1H-1,2,3-triazol-1-yl)-20-deoxodesmycosin] | 14 mm | 17 mm | 19 mm | 21 mm | – | – | – | – | – | – | – | – | – | –
9 | CC[C@H]1OC(=O)C[C@@H](O)[C@H](C)[C@@H](O[C@@H]2OC(C)[C@@H](O)C(N(C)C)C2O)[C@@H](CCn2cc(CCCCO)nn2)C[C@@H](C)C(=O)/C=C/C(C)=C/[C@@H]1CO[C@@H]1OC(C)[C@@H](O)C(OC)C1OC (some centres unmarked) [YT36, 20-(4-(4-butanol)-1H-1,2,3-triazol-1-yl)-20-deoxodesmycosin] | – | – | – | 9 mm | – | – | – | – | – | – | – | – | – | –
10 | CC[C@H]1OC(=O)C[C@@H](O)[C@H](C)[C@@H](O[C@@H]2OC(C)[C@@H](O)C(N(C)C)C2O)[C@@H](CCn2cc(CO)nn2)C[C@@H](C)C(=O)/C=C/C(C)=C/[C@@H]1CO[C@@H]1OC(C)[C@@H](O)C(OC)C1OC (some centres unmarked) [YT37, 20-(4-(methanol)-1H-1,2,3-triazol-1-yl)-20-deoxodesmycosin] | – | – | 9 mm | 12.5 mm | – | – | – | – | – | – | – | – | – | –
11 | CC[C@H]1OC(=O)C[C@@H](O)[C@H](C)[C@@H](O[C@@H]2O[C@H](C)[C@@H](O)[C@H](N(C)C)[C@H]2O)[C@@H](CCn2cc(-c3ccccc3)nn2)C[C@@H](C)C(=O)/C=C/C(C)=C/[C@@H]1CN=[N+]=[N-] [YT114, 20-(4-phenyl-1H-1,2,3-triazol-1-yl)-20-deoxo-23-azido-23-deoxy-5-O-mycaminosyltylonolide] | – | – | – | – | – | – | – | – | – | – | – | – | – | Inhibition zone (mm) ([1]; Table 4, 3 mg/6 mm disk): 11.5 mm; Inhibition zone (mm) ([1]; Table 4, 10 mg/6 mm disk): 17.5 mm; Inhibition zone (mm) ([1]; Table 4, 30 mg/6 mm disk): 21.0 mm; Inhibition zone (mm) ([1]; Table 4, 100 mg/6 mm disk): 21.0 mm
